Patent publication US11168052B2, “Carbamate derivative compounds, processes for preparing them and their uses” (BIO-PHARM SOLUTIONS CO., LTD., priority 2016, dated 2021)

Tests used:
[1] = test system: CFA-induced pain model in rats; assay: Antiallodynic activity on Complete Freund's Adjuvant (CFA)-induced inflammatory pain model; format: in vivo, Sprague-Dawley rats; conditions: 50 mg/kg intraperitoneally, von Frey threshold relative to sham, 0.5 hr after administration; for response vs control in vivo at 50 mg/kg: Rattus norvegicus, ip, read-out: Efficacy of 50 mg/kg(%)
Method: Male, Sprague-Dawley rats (210-250 g, Nara Bio, Korea) were habituated for 1 week before surgery and allowed free access to food and water throughout the experimentation. Room temperature and humidity were maintained at 24±2 and 50±10%, respectively.
CFA-induced inflammatory pain was induced by the procedure of Nagakura et al. (2003) and Gregory P. et al. (2010) with minor modifications. CFA (sigma, USA) was injected in the right plantar with a 100 ul volume under gaseous anesthesia with isoflurane. Sham controls were injected with 100 ul of saline, and preparation of the vehicle controls were identical to the group treated with compound, except for administration of vehicles without indentical to the vihecle control group.
Tactile sensitivity (Mechanical allodynia) was evaluated using von Frey monofilaments before and after treatment, and animals were include in the study only if the withdrawal threshold value was less than 4 g. One week after CFA injection, CFA-infused animals, sham-operated animal, and vehicle-operated animals were tested for tactile sensitivity with von Frey monofilaments, with 3 trials for each animal. All Animals were placed in a stainless steel mashe chamber and habituated for 30 min in the test cage. The tactile sensitivity for ipsilateral hind paw was measured using the up-and-down method (Dixon, 1980) with seven von Frey monofilaments (0.4, 1, 2, 4, 6, 8, and 15 g) to 3 trials. The tactile sensitivity test was followed by Dixon's method (Dixon, 1980). The 50% paw withdrawal threshold for each paw was calculated using the following formula: [Xth]log=[vFr]log+ky where [vFr] is the force of the last von Frey used, k=0.2249 which is the average interval (in log units) between the von Frey monofilaments, and y is a value that depends upon the pattern of withdrawal responses (Dixon, 1980).
Antiallodynic effect of compounds was evaluated at the dose of 50 mg/kg (n=4-6), intraperitoneally administrated in a volume of 5 ul/g bw in a vehicle of 30% (v/v) PEG or 20% (v/v) Tween 80. The test was performed peak time of efficacy (0.5 hr) after compound administration.
The relative values compared to the sham (% control) were calculated and shown in Table 5, which show an antiallodynic effect of Compound 1 on CFA-induced pain model in rats.

[2] = test system: MES (electroshock) seizure in mice; assay: Anti-epilepsy activity, MES test in mouse; format: in vivo, ICR mice
Method: (§1) In the MES test (Ref., G. Villetti et al. Neuropharmacology 40(2001) 866-878), an electrical stimulus (mice: 50 mA, 60 Hz, 0.2 sec, and rats: 150 mA, 60 Hz, 0.2 sec in the test animal) supplied by an 11A Shocker (IITC Life Science Company) was delivered through corneal electrodes. All mice or rats assigned to any electroshock at peak time were treated with each test compound sample which was dissolved in 20% tween 80 prepared by saline solvent applied orally before the test. […] Three doses of the test sample were administered orally to 9-18 animals (3-6 mice per dose) for evaluating the respective doses at which 50% of the animals were protected from seizure (ED50). The ED50 value (median effective dose) was calculated by Litchfield and Wicoxon log-probit method which is a dose-response relationship. Experimental animals, male ICR mice and male SD rats, were purchased from OrientBio, Samtako, or Nara Biotech, Korea, and housed in cages (4-5 mice or 3 rats per cage) for 4-5 days. The range of mice body weight was between 19 and 25 grams and range of rats body weight was between 100 and 130 grams.

[3] = test system: MES (electroshock) seizure in rats; assay: Anti-epilepsy activity, MES test in rats; format: in vivo, SD rats; conditions: Rattus norvegicus, po
Method: as §1

[4] = po, read-out: MES test (po) efficacy %

Compound	response vs control in vivo at 50 mg/kg [1]	responders at 100 mg/kg [2, 4]	further results
8-chloro-2-hydroxy-1,2,3,4-tetrahydronaphthalen-1-yl carbamate (mixture of SR & RS) [Example 20]	–	–	Efficacy of 50 mg/kg(%) [1]: 40.2%; MES test (po) ED50 [2]: 31.4 mg/kg
NC(=O)O[C@H]1CCc2cc(Cl)ccc2[C@H]1O [Example 9, (1R, 2S)-6-chloro-1-hydroxy-1,2,3,4-tetrahydronaphthalen-2-yl carbamate]	27.5%	–	–
NC(=O)O[C@H]1Cc2cccc(Cl)c2[C@H]1OC(N)=O [Example 78, (1R, 2S)-7-chloro-2,3-dihydro-1H-inden-1,2-diyl dicarbamate]	62.3%	33.3%	–
NC(=O)O[C@@H]1CCc2cccc(I)c2[C@@H]1OC(N)=O [Example 36, (1S, 2R)-8-iodo-1,2,3,4-tetrahydronaphthalen-1,2-diyl dicarbamate]	72.2%	–	responders at 300 mg/kg [2, 4]: 33.3%
NC(=O)O[C@@H]1CCc2ccc(Cl)cc2[C@@H]1O [Example 6, (1S, 2R)-7-chloro-1-hydroxy-1,2,3,4-tetrahydronaphthalen-2-yl carbamate]	26.8%	33.3%	–
NC(=O)O[C@@H]1Cc2c(Cl)cccc2[C@@H]1O [Example 68, (1S, 2R)-4-chloro-1-hydroxy-2,3-dihydro-1H-inden-2-yl carbamate]	–	–	ED50 ([2]; po): 61.2 mg/kg; ED50 [3]: 14.4 mg/kg
NC(=O)O[C@H]1CCc2ccc(Cl)cc2[C@H]1O [Example 7]	28.6%	–	responders at 150 mg/kg ([2]; po, dose 150 mg/kg, read-out: MES test (po) efficacy %): 100%
NC(=O)O[C@@H]1CCc2cc(Cl)ccc2[C@@H]1O [Example 8, (1S, 2R)-6-chloro-1-hydroxy-1,2,3,4-tetrahydronaphthalen-2-yl carbamate]	–	100%	–
NC(=O)O[C@H]1CCc2cccc(I)c2[C@H]1OC(N)=O [Example 37, (1R, 2S)-8-iodo-1,2,3,4-tetrahydronaphthalen-1,2-diyl dicarbamate]	–	–	responders at 300 mg/kg [2, 4]: 33.3%
NC(=O)O[C@H]1Cc2cccc(F)c2[C@H]1O [Example 56, (1R, 2S)-7-fluoro-1-hydroxy-2,3-dihydro-1H-inden-2-yl carbamate]	43.2%	–	ED50 ([2]; po): 45.6 mg/kg
NC(=O)O[C@@H]1CCc2ccccc2[C@@H]1OC(N)=O [Example 38, (1S, 2R)-1,2,3,4-tetrahydronaphthalen-1,2-diyl dicarbamate]	–	25%	–
NC(=O)O[C@H]1c2cccc(Cl)c2C[C@H]1O [Example 62, (1S, 2R)-4-chloro-2-hydroxy-2,3-dihydro-1H-inden-1-yl carbamate]	–	–	ED50 ([2]; po): 53.1 mg/kg; ED50 [3]: 24.5 mg/kg
NC(=O)O[C@@H]1CCc2cccc(I)c2[C@@H]1O [Example 12, (1S, 2R)-1-hydroxy-8-iodo-1,2,3,4-tetrahydronaphthalen-2-yl carbamate]	38.5%	100%	–
NC(=O)O[C@H]1CCc2cccc(Cl)c2[C@H]1OC(N)=O [Example 30, (1R, 2S)-8-chloro-1,2,3,4-tetrahydronaphthalen-1,2-diyl dicarbamate]	28.4%	–	responders at 400 mg/kg ([2]; po, dose 400 mg/kg, read-out: MES test (po) efficacy %): 33.3%
NC(=O)O[C@@H]1CCc2cccc(Cl)c2[C@H]1O [Example 4, (1R, 2R)-8-chloro-1-hydroxy-1,2,3,4-tetrahydronaphthalen-2-yl carbamate]	–	–	ED50 ([2]; po): 80.6 mg/kg
NC(=O)O[C@@H]1c2c(I)cccc2CC[C@@H]1O [Example 28, (1R, 2S)-2-hydroxy-8-iodo-1,2,3,4-tetrahydronaphthalen-1-yl carbamate]	42.1%	100%	–
NC(=O)O[C@@H]1CCc2ccccc2[C@@H]1O [Example 14, (1S, 2R)-1-hydroxy-1,2,3,4-tetrahydronaphthalen-2-yl carbamate]	–	100%	–
COCO[C@@H]1c2c(Cl)cccc2C[C@@H]1OC(N)=O [Example 72, (1R, 2S)-7-chloro-1-(methoxymethoxy)-2,3-dihydro-1H-inden-2-yl carbamate]	21.4%	–	–
NC(=O)O[C@H]1c2cc(Cl)ccc2CC[C@H]1O [Example 21, (1S, 2R)-7-chloro-2-hydroxy-1,2,3,4-tetrahydronaphthalen-1-yl carbamate]	28.9%	33.3%	–
COCO[C@H]1Cc2cccc(Cl)c2[C@H]1OC(N)=O [Example 76, (1R, 2S)-7-chloro-2-(methoxymethoxy)-2,3-dihydro-1H-inden-1-yl carbamate]	59.2%	100%	–
NC(=O)O[C@H]1c2c(F)cccc2C[C@H]1O [Example 69, (1S, 2R)-7-fluoro-2-hydroxy-2,3-dihydro-1H-inden-1-yl carbamate]	–	33.3%	–
NC(=O)O[C@H]1c2ccc(Cl)cc2CC[C@H]1O [Example 23, (1S, 2R)-6-chloro-2-hydroxy-1,2,3,4-tetrahydronaphthalen-1-yl carbamate]	–	33.3%	–
NC(=O)O[C@@H]1c2cc(Cl)ccc2CC[C@@H]1O [Example 22, (1R, 2S)-7-chloro-2-hydroxy-1,2,3,4-tetrahydronaphthalen-1-yl carbamate]	35.7%	100%	–
NC(=O)O[C@@H]1CCc2cccc(Cl)c2[C@@H]1OC(N)=O [Example 29, (1S, 2R)-8-chloro-1,2,3,4-tetrahydronaphthalen-1,2-diyldicarbamate]	30.3%	66.6%	–
NC(=O)O[C@H]1c2ccccc2CC[C@H]1O [Example 16, (1S, 2R)-2-hydroxy-1,2,3,4-tetrahydronaphthalen-1-yl carbamate]	–	50%	–
NC(=O)O[C@H]1CCc2cccc(I)c2[C@H]1O [Example 13, (1R, 2S)-1-hydroxy-8-iodo-1,2,3,4-tetrahydronaphthalen-2-yl carbamate]	43.1%	33.3%	–
NC(=O)O[C@H]1c2c(I)cccc2CC[C@H]1O [Example 27, (1S, 2R)-2-hydroxy-8-iodo-1,2,3,4-tetrahydronaphthalen-1-yl carbamate]	37.8%	–	responders at 200 mg/kg ([2]; po, dose 200 mg/kg, read-out: MES test (po) efficacy %): 100%
